Measured values published in patent US12569467B2, “Small molecules that treat or prevent viral infections” (priority 2022, dated 2026).

Test system: SARS-CoV-2 Spike protein pseudotyped lentiviral particles
Assay: microbe, parasite or virus in culture
Type: cell-based
Details: Severe acute respiratory syndrome coronavirus 2, HEK293, read-out: half-maximal effective concentration (EC50), neutralization of SARS-CoV2 infection

## O=C1Nc2ccccc2/C1=C\c1ccc(-c2cc(C(F)(F)F)cc(C(F)(F)F)c2)o1 [CD04872SC, 3-({5-[3,5-di(trifluoromethyl)phenyl]-2-furyl}methylidene)indolin-2-one]
  EC50: 248 µM
